The experiment has as its target Human Factor D (Homo sapiens (Human), UniProt P00746). Briefly: Human Factor D Assay. It is filed as biochemical. In short, it runs like this:
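Thioester substrate Z-L-Lys-SBz (100 μM) with Ellman's reagent DTNB (100 μM) reports activity of 80 nM human serum-derived enzyme, kinetically at 405 nm over 30 min. Compound preincubated 5 min, room temperature, pH 7.5 Tris/1 M NaCl; IC50 by nonlinear fit of rates.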

The mark [1] stands for this setting: Factor D inhibition, assay of Example 10, read-out: IC5 (Stars).
The mark [2] stands for this setting: Table 8, Factor D 80 nM, substrate Z-L-Lys-SBz, read-out: IC50.

Read-outs that look alike come from different tables or passages of the source.

Human Factor D, sequence (P00746 26-253): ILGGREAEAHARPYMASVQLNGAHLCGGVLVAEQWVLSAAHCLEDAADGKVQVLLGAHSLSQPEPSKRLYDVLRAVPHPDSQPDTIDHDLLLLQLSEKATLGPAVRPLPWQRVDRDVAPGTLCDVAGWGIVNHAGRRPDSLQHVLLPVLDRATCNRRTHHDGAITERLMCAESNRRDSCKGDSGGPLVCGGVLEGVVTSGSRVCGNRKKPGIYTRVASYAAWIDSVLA

With `CCc1cc(-c2cnc(C)nc2)cc2c(C(C)=O)nn(CC(=O)N3[C@H](C(=O)Nc4nc(Br)ccc4C)C[C@@]4(CN(C)C)C[C@@H]34)c12` [Compound 316, (1R,3S,5R)-2-(2-(3-acetyl-7-ethyl-5-(2-methylpyrimidin-5-yl)-1H-indazol-1-yl)acetyl)-N-(6-bromo-3-methylpyridin-2-yl)-5-((dimethylamino)methyl)-2-azabicyclo[3.1.0]hexane-3-carboxamide], under setting [1], the IC50 was less than 1000 nM.
Regarding `CC(=O)c1nn(CC(=O)N2[C@H](C(=O)Nc3nc(Br)ccc3C)C[C@@]3(CN(C)C)C[C@@H]23)c2c(C3CC3)cc(-c3cnc(C)nc3)cc12` [Compound 317, (1R,3S,5R)-2-(2-(3-acetyl-7-cyclopropyl-5-(2-methylpyrimidin-5-yl)-1H-indazol-1-yl)acetyl)-N-(6-bromo-3-methylpyridin-2-yl)-5-((dimethylamino)methyl)-2-azabicyclo[3.1.0]hexane-3-carboxamide], under setting [2], the IC50 is less than 1000 nM.
As for `CC(=O)c1nn(CC(=O)N2[C@H](C(=O)Nc3nc(Br)ccc3C)C[C@@]3(CN(C)C)C[C@@H]23)c2c(C(F)(F)F)cc(-c3cnc(C)nc3)cc12` [Compound 318, (1R,3S,5R)-2-(2-(3-acetyl-5-(2-methylpyrimidin-5-yl)-7-(trifluoromethyl)-1H-indazol-1-yl)acetyl)-N-(6-bromo-3-methylpyridin-2-yl)-5-((dimethylamino)methyl)-2-azabicyclo[3.1.0]hexane-3-carboxamide], the IC50 under setting [2] was less than 1000 nM.
As for `CC(=O)c1nn(CC(=O)N2[C@H](C(=O)Nc3nc(Br)ccc3CN3CCC(C)(F)CC3)C[C@@]3(C)C[C@@H]23)c2ccc(-c3cnc(C)nc3)cc12` [Compound 322, (1R,3S,5R)-2-(2-(3-acetyl-5-(2-methylpyrimidin-5-yl)-1H-indazol-1-yl)acetyl)-N-(6-bromo-3-((4-fluoro-4-methylpiperidin-1-yl)methyl)pyridin-2-yl)-5-methyl-2-azabicyclo[3.1.0]hexane-3-carboxamide], the IC50 under setting [1] was less than 1000 nM.
Turning to `CC(=O)c1nn(CC(=O)N2[C@H](C(=O)Nc3nc(Br)ccc3C)C[C@@]3(CN(C)C)C[C@@H]23)c2c(C(F)CF)cc(-c3cnc(C)nc3)cc12` (stereo partly drawn) [Compound 325, (1R,3S,5R)-2-(2-(3-acetyl-7-(1,2-difluoroethyl)-5-(2-methylpyrimidin-5-yl)-1H-indazol-1-yl)acetyl)-N-(6-bromo-3-methylpyridin-2-yl)-5-((dimethylamino)methyl)-2-azabicyclo[3.1.0]hexane-3-carboxamide], the IC50 under setting [1] was less than 1000 nM.
`CC(=O)c1nn(CC(=O)N2[C@H](C(=O)Nc3nc(Br)ccc3C)C[C@@]3(CCC(F)F)C[C@@H]23)c2cnc(-c3cnc(C)nc3)cc12` [Compound 327]: the IC50 under setting [1] is less than 1000 nM.
On to `COC(=O)CCCCCCCCCCCCCCCCC(=O)N[C@@H](CCC(=O)NCCOCCOCC(=O)NCCOCCOCC(=O)NCc1ncc(-c2ccc3c(c2)c(C(C)=O)nn3CC(=O)N2[C@H](C(=O)Nc3nc(Br)ccc3C)C[C@@]3(C)C[C@@H]23)cn1)C(=O)OC` [Compound 329], for which the IC50 under setting [2] is less than 1000 nM.
For the compound `CC(=O)c1nn(CC(=O)N2[C@H](C(=O)Nc3nc(Br)ccc3C)C[C@@]3(C)C[C@@H]23)c2ccc(-c3cnc(C)nc3C)cc12` [Compound 331, (1R,3S,5R)-2-(2-(3-acetyl-5-(2,4-dimethylpyrimidin-5-yl)-1H-indazol-1-yl)acetyl)-N-(6-bromo-3-methylpyridin-2-yl)-5-methyl-2-azabicyclo[3.1.0]hexane-3-carboxamide], the IC50 under setting [1] was less than 1000 nM.
On the same count and under the same terms, the same measure for `CC(=O)c1nn(CC(=O)N2[C@H](C(=O)Nc3nc(Br)ccc3C)C[C@@]3(c4cc(C(C)C)no4)C[C@@H]23)c2ccc(-c3cnc(C)nc3)cc12` [Compound 333, (1R,3S,5S)-2-(2-(3-acetyl-5-(2-methylpyrimidin-5-yl)-1H-indazol-1-yl)acetyl)-N-(6-bromo-3-methylpyridin-2-yl)-5-(3-isopropylisoxazol-5-yl)-2-azabicyclo[3.1.0]hexane-3-carboxamide]: less than 1000 nM; for `CC(=O)c1nn(CC(=O)N2[C@H](C(=O)Nc3nc(Br)ccc3C)C[C@@]3(Cc4nc(C(C)(C)C)cs4)C[C@@H]23)c2ccc(-c3cnc(C)nc3)cc12` [Compound 338, (1R,3S,5R)-2-{2-[3-Acetyl-5-(2-methylpyrimidin-5-yl)indazol-1-yl]acetyl}-N-(6-bromo-3-methylpyridin-2-yl)-5-[(4-tert-butyl-1,3-thiazol-2-yl)methyl]-2-azabicyclo[3.1.0]hexane-3-carboxamide]: less than 1000 nM.
Take `CCc1csc(C[C@@]23C[C@@H](C(=O)Nc4nc(Br)ccc4C)N(C(=O)Cn4nc(C(C)=O)c5cc(-c6cnc(C)nc6)ccc54)[C@@H]2C3)n1` [Compound 339, (1R,3S,5R)-2-(2-(3-acetyl-5-(2-methylpyrimidin-5-yl)-1H-indazol-1-yl)acetyl)-N-(6-bromo-3-methylpyridin-2-yl)-5-((4-ethylthiazol-2-yl)methyl)-2-azabicyclo[3.1.0]hexane-3-carboxamide]: under setting [1], the IC50 is less than 1000 nM.
Same read-out and setting: the same measure for `CC(=O)c1nn(CC(=O)N2[C@H](C(=O)Nc3nc(Br)ccc3C)C[C@@]3(CNCCCF)C[C@@H]23)c2c(C)cc(-c3cnc(C)nc3)cc12` [Compound 342, (1R,3S,5R)-2-(2-(3-acetyl-7-methyl-5-(2-methylpyrimidin-5-yl)-1H-indazol-1-yl)acetyl)-N-(6-bromo-3-methylpyridin-2-yl)-5-(((3-fluoropropyl)amino)methyl)-2-azabicyclo[3.1.0]hexane-3-carboxamide]: less than 1000 nM.
For the compound `C=CCCCCCCc1cc(-c2cnc(C)nc2)cc2c(C(C)=O)nn(CC(=O)N3[C@H](C(=O)Nc4nc(Br)ccc4CC=C)C[C@@]4(C)C[C@@H]34)c12` [Compound 343, (1R,3S,5R)-2-(2-(3-acetyl-5-(2-methylpyrimidin-5-yl)-7-(oct-7-en-l-yl)-1H-indazol-1-yl)acetyl)-N-(3-allyl-6-bromopyridin-2-yl)-5-methyl-2-azabicyclo[3.1.0]hexane-3-carboxamide], under setting [2], the IC50 is less than 1000 nM.
With `CC(=O)c1nn(CC(=O)N2[C@H](C(=O)Nc3nc(Br)ccc3C)C[C@@]3(CN4CC5(CCC5)C4)C[C@@H]23)c2c(C)nc(-c3cnc(C)nc3)cc12` [Compound 344, (1R,3S,5R)-5-(2-azaspiro[3.3]heptan-2-ylmethyl)-2-(2-(3-acetyl-7-methyl-5-(2-methylpyrimidin-5-yl)-1H-pyrazolo[3,4-c]pyridin-1-yl)acetyl)-N-(6-bromo-3-methylpyridin-2-yl)-2-azabicyclo[3.1.0]hexane-3-carboxamide], the IC50 under setting [1] is less than 1000 nM.
Same read-out and setting: the same measure for `CC(=O)c1nn(CC(=O)N2[C@H](C(=O)Nc3nc(Br)ccc3C)C[C@@]3(CCCN(C)C)C[C@@H]23)c2c(CF)cc(-c3cnc(C)nc3)cc12` [Compound 345, (1R,3S,5R)-2-(2-(3-acetyl-7-(fluoromethyl)-5-(2-methylpyrimidin-5-yl)-1H-indazol-1-yl)acetyl)-N-(6-bromo-3-methylpyridin-2-yl)-5-(3-(dimethylamino)propyl)-2-azabicyclo[3.1.0]hexane-3-carboxamide]: less than 1000 nM; for `CC(=O)c1nn(CC(=O)N2[C@H](C(=O)Nc3nc(Br)ccc3C)C[C@@]3(Cc4ncc(C(C)C)s4)C[C@@H]23)c2ccc(-c3cnc(C)nc3)cc12` [Compound 349, (1R,3S,5R)-2-(2-(3-acetyl-5-(2-methylpyrimidin-5-yl)-1H-indazol-1-yl)acetyl)-N-(6-bromo-3-methylpyridin-2-yl)-5-((5-isopropylthiazol-2-yl)methyl)-2-azabicyclo[3.1.0]hexane-3-carboxamide]: less than 1000 nM; for `CC(=O)c1nn(CC(=O)N2[C@H](C(=O)Nc3nc(Br)ccc3C)C[C@@]3(CN4CC(C)(C)C4)C[C@@H]23)c2c(C)cc(-c3cnc(C)nc3)cc12` [Compound 350]: less than 1000 nM.
As to `CC(=O)c1nn(CC(=O)N2[C@H](C(=O)Nc3nc(Br)ccc3C)C[C@@]3(CN4CCCC4)C[C@@H]23)c2c(CF)cc(-c3cnc(C)nc3)cc12` [Compound 351, (1R,3S,5R)-2-(2-(3-acetyl-7-(fluoromethyl)-5-(2-methylpyrimidin-5-yl)-1H-indazol-1-yl)acetyl)-N-(6-bromo-3-methylpyridin-2-yl)-5-(pyrrolidin-1-ylmethyl)-2-azabicyclo[3.1.0]hexane-3-carboxamide], under setting [1], the IC50 was less than 1000 nM.
With `CC(=O)c1nn(CC(=O)N2[C@H](C(=O)Nc3nc(Br)ccc3C)C[C@@]3(CN4CCC4)C[C@@H]23)c2c(CF)cc(-c3cnc(C)nc3)cc12` [Compound 353, (1R,3S,5R)-2-(2-(3-acetyl-7-(fluoromethyl)-5-(2-methylpyrimidin-5-yl)-1H-indazol-1-yl)acetyl)-5-(azetidin-1-ylmethyl)-N-(6-bromo-3-methylpyridin-2-yl)-2-azabicyclo[3.1.0]hexane-3-carboxamide], the IC50 under setting [1] was less than 1000 nM.
Regarding `CC(=O)c1nn(CC(=O)N2[C@H](C(=O)Nc3nc(Br)ccc3C)C[C@@]3(CN4CC5(CCC5)C4)C[C@@H]23)c2c(CF)cc(-c3cnc(C)nc3)cc12` [Compound 354, (1R,3S,5R)-5-(2-azaspiro[3.3]heptan-2-ylmethyl)-2-(2-(3-acetyl-7-(fluoromethyl)-5-(2-methylpyrimidin-5-yl)-1H-indazol-1-yl)acetyl)-N-(6-bromo-3-methylpyridin-2-yl)-2-azabicyclo[3.1.0]hexane-3-carboxamide], the IC50 under setting [1] was less than 1000 nM.
Same read-out and setting: the same measure for `CC(=O)c1nn(CC(=O)N2[C@H](C(=O)Nc3nc(Br)ccc3C)C[C@@]3(CN4CC(C)(C)C4)C[C@@H]23)c2c(CF)cc(-c3cnc(C)nc3)cc12` [Compound 355, (1R,3S,5R)-2-(2-(3-acetyl-7-(fluoromethyl)-5-(2-methylpyrimidin-5-yl)-1H-indazol-1 yl)acetyl)-N-(6-bromo-3-methylpyridin-2-yl)-5-((3,3-dimethylazetidin-1-yl)methyl)-2-azabicyclo[3.1.0]hexane-3-carboxamide]: less than 1000 nM.

The record behind these values is patent US11084800B2 (Achillion Pharmaceuticals, Inc., priority 2017, dated 2021).
